In publication PMC8911826, “Design of Oligourea-Based Foldamers with Antibacterial and Antifungal Activities” (Molecules, 2022):
Converted amounts (≈) assume the structure as drawn. Where two headings read alike, the source gives them in different places. Marks after values point to notes of the source that are not given here.

Legend:
[1] = test system: C. albicans ATCC 18804; assay: Antifungal MIC assay in SAB, C. albicans; format: cell-based, Candida albicans
Method: The Candida albicans (C. albicans, ATCC 18804) strain was used to assess the antifungal properties of the samples. Briefly, C. albicans was cultured aerobically at 30 °C in Sabouraud dextrose broth (SAB) medium (Becton Dickinson, Voisins le Bretonneux, France). One colony was then transferred to 10 mL of SAB medium and incubated at 30 °C for 20 h. The absorbance at 620 nm of overnight culture was adjusted to 0.001 and the tests were performed under the same conditions as those used for bacteria, with the exception of the temperature (30 °C instead of 37 °C) and the culture medium (SAB instead of MHB).

[2] = test system: P. aeruginosa ATCC 27853; format: cell-based, Pseudomonas aeruginosa; conditions: for MIC, P. aeruginosa ATCC 27853: MHB medium pH 7.4, 24 h, 100 μL, 5 × 10^5 CFU/mL, OD 620 nm, lowest concentration with 0% growth, mean of 3 samples
Method: (§1) Staphylococcus aureus (S. aureus, ATCC 25923), Staphylococcus aureus S1 Methicillin Resistant (MRSA; this strain was kindly provided by Dr Gilles Prévost, University of Strasbourg), Escherichia coli (E. coli, ATCC 25922), and Pseudomonas aeruginosa (P. aeruginosa, ATCC 27853) strains were used to assess the antibacterial properties of the samples. Bacterial strain was cultured aerobically at 37 °C in Mueller–Hinton broth (MHB) medium (Merck, Germany), pH 7.4. One colony was transferred to 10 mL of MHB medium and incubated at 37 °C for 20 h. To obtain bacteria in the mid logarithmic phase of growth, the absorbance at 620 nm of overnight culture was adjusted to 0.001, corresponding to a final density of 5 × 10^5 CFU/mL. Ninety percent of this culture was incubated with 10% of the test compound at different concentrations. The positive control was composed of 90% bacterial suspension and 10% a mixture of antibiotics (tetracycline: 10 μg/mL and cefotaxime: 0.1 μg/mL in PBS). The negative control was composed of 90% of the bacterial suspension and 10% of PBS, corresponding to our 100% growth.
(§2) In order to test the influence of serum on the minimal inhibitory concentration (MIC), we added 10% decomplemented fetal bovine serum or 50% nondecomplemented fetal bovine serum in MHB medium. After 24 h of incubation at 37 °C with shaking, the optical density at 620 nm of each well was measured. The smallest concentration for which bacterial growth is 0% corresponds to the MIC of the tested compound.

[3] = test system: Staphylococcus aureus S1 Methicillin Resistant (MRSA); format: cell-based
Method: as §1, §2

[4] = test system: S. aureus ATCC 25923; format: cell-based, Staphylococcus aureus
Method: as §1, §2

[5] = test system: E. coli ATCC 25922; format: cell-based, Escherichia coli
Method: as §1, §2

[6] = test system: MDA-MB-231 cells; conditions: 24 h
Method: (§3) We used the human breast cancer cell line MDA-MB-231. The cells were cultured using RPMI that was supplemented with 100 units/mL penicillin, 100 µg/mL streptomycin, and 10% of fetal calf serum (FCS from HyClone, Fischer Scientific, Illkirch, France). The MDA-MB-231 cells were plated in 48-well plates one day before the experiments were conducted. The cell confluence was around 60% the day of the assay.
The cell viability was determined on MDA-MB-231 cells by performing the MTS assay (3-(4,5-dimethylthiazol-2-yl)-5-(3-carboxymethoxyphenyl)-2-(4-sulfophenyl)-2H-tetrazolium salt) (CellTiter 96® AQueous One Solution Cell Proliferation Assay from Promega). This assay was performed using biological triplicates (same amount of foldamer were added to 3 different wells). Increasing amounts of foldamer diluted in 250 μL/well of RPMI 10% FCS were added to the cells. After 24 h of incubation, the culture medium was removed and replaced with 300 μL/well of RPMI 10% FCS containing the MTS reagent (50 μL/well). After incubation at 37 °C for 1 h and 10 min, 200 μL of medium were withdrawn and used to measure the absorbance at 490 nm (and 680 nm for background). Untreated cells were used as control (100% of cell viability).

[7] = test system: MDA-MB-231 cells
Method: as §3
The membrane permeabilization activity was measured as the leakage of lactate dehydrogenase (LDH) from the cells. […] Thereby, foldamers were incubated with MDA-MB-231 cells and after incubation at 37 °C for 1 h and 10 min, an aliquot (50 μL) of the supernatant of each well was used for the measurement of the LDH activity. […] The LDH release was measured using a commercially available kit (CytoTox-ONE membrane integrity assay from Promega). Untreated cells were used as control. The value of 100% LDH release was obtained by using cells treated with a lysis buffer. Absorbance was measured at 490 nm (and at 680 nm for background).

[8] = test system: Aspergillus fumigatus 098; assay: Antifungal assay on spores, growth evaluated by microscopy; format: cell-based; conditions: 30 °C, 24 h without agitation, n = 3
Method: Aspergillus fumigatus strain (A. fumigatus, ASPFU098 from Dynamique des interactions hôte pathogène (DIHP) laboratory—EA 7292, Strasbourg) were tested to evaluate the antifungal properties of foldamers. Spores were resuspended at a concentration of 10^3 spores/mL in Sabouraud dextrose broth medium. Test samples were incubated with 90 μL of fungal spores. The suspension was incubated at 30 °C for 24 h without agitation. Fungal growth was monitored microscopically after 24 h. Media alone was used as negative control and corresponds to 100% fungal growth; voriconazole (50 μg/mL) was used as a positive control and corresponds to 100% growth inhibition.

[9] = test system: S. aureus; conditions: 50% bovine serum; cited from earlier work
[10] = MHB medium pH 7.4, 24 h, 37 °C, 100 μL, 5 × 10^5 CFU/mL, OD 620 nm, lowest concentration with 0% growth, mean of 3 samples
[11] = Table S2, MIC of Table 1 in μM, MHB, 24 h, 37 °C

Compound | MIC, C. albicans 18804 ([1]; ATCC 18804, 24 h) [µg/mL] | MIC, P. aeruginosa 27853 ([2]; ATCC 27853, 24 h) [μΜ] | MIC, P. aeruginosa ATCC 27853 ([2]; 37 °C) [µg/mL] | MIC, MRSA [3, 10] [µg/mL] | MIC, MRSA ([3]; S1 Methicillin Resistant, 24 h) [μΜ] | MIC, S. aureus 25923 ([4]; ATCC 25923, 24 h) [μΜ] | MIC, S. aureus ATCC 25923 [4, 10] | MIC, E. coli 25922 ([5]; ATCC 25922, 24 h) [μΜ] | MIC, E. coli ATCC 25922 [5, 10] [µg/mL] | further results
CC(C)NC(=O)N[C@H](CNC(=O)N[C@H](CNC(=O)N[C@H](CNC(=O)N[C@H](CNC(=O)N[C@@H](CCCNC(=N)N)CNC(=O)N[C@H](CNC(=O)N[C@@H](CCCNC(=N)N)CNC(=O)N[C@H](CCC(N)=O)C(C)C)Cc1c[nH]c2ccccc12)C(C)C)Cc1c[nH]c2ccccc12)Cc1c[nH]cn1)C(C)C [OL-2] | 12.5 (≈ 8.6 µM) | 17.2 | 25 (≈ 17.2 µM) | 12.5 (≈ 8.6 µM) | 8.6 | 4.3 | 6.25 µg/mL (≈ 4.3 µM) | 4.3 | 6.25 (≈ 4.3 µM) | –
CC(C)NC(=O)N[C@@H](CCCNC(=N)N)CNC(=O)N[C@H](CNC(=O)N[C@H](CNC(=O)N[C@H](CNC(=O)N[C@H](CNC(=O)N[C@H](CNC(=O)N[C@H](CNC(=O)N[C@@H](CCCNC(=N)N)CNC(=O)N[C@H](CCC(N)=O)C(C)C)Cc1c[nH]c2ccccc12)Cc1c[nH]cn1)C(C)C)Cc1c[nH]c2ccccc12)Cc1c[nH]cn1)C(C)C [OL-4] | – | – | 50 (≈ 30.9 µM) | 6.25 (≈ 3.86 µM) | – | – | 6.25 µg/mL (≈ 3.86 µM) | – | 6.25 (≈ 3.86 µM) | MIC, C. albicans 18804 ([1]; Sabouraud dextrose broth (SAB), 24 h, 30 °C, 100 μL, OD 620 nm, n = 3): 12.5 µg/mL (≈ 7.72 µM); MIC, P. aeruginosa 27853 [2, 11]: 30.88 μΜ; MIC, MRSA [3, 11]: 3.86 μΜ; MIC, S. aureus 25923 [4, 11]: 3.86 μΜ; MIC, E. coli 25922 [5, 11]: 3.86 μΜ
CC(C)NC(=O)N[C@H](CNC(=O)N[C@@H](CCCNC(=N)N)CNC(=O)N[C@H](CNC(=O)N[C@H](CNC(=O)N[C@@H](CCCNC(=N)N)CNC(=O)N[C@H](CNC(=O)N[C@@H](CCCNC(=N)N)CNC(=O)N[C@H](CCC(N)=O)C(C)C)Cc1c[nH]c2ccccc12)C(C)C)Cc1c[nH]c2ccccc12)C(C)C [OL-5] | 6.25 (≈ 4.25 µM) | 8.5 | 12.5 (≈ 8.49 µM) | 6.25 (≈ 4.25 µM) | 4.25 | 8.5 | 12.5 µg/mL (≈ 8.49 µM) | 4.25 | 6.25 (≈ 4.25 µM) | –
CC(=O)N[C@@H](CCCCN)C(=O)N[C@@H](Cc1c[nH]cn1)C(=O)N[C@@H](CCCCN)C(=O)N[C@@H](Cc1c[nH]cn1)C(=O)N[C@@H](CCCCN)C(=O)N[C@@H](C)CNC(=O)N[C@H](CNC(=O)N[C@@H](C)CNC(=O)N[C@H](CNC(N)=O)Cc1c[nH]c2ccccc12)Cc1c[nH]c2ccccc12 [OL-6] | – | – | – | – | – | – | – | – | – | MIC, S. aureus ATCC 25923 ([4]; ATCC 25923, 24 h, pH 7.4): ≥ 100 µg/mL; MIC, E. coli ATCC 25922 ([5]; ATCC 25922, 24 h, pH 7.4): ≥ 100 µg/mL
CC(=O)N[C@@H](CCCNC(=N)N)C(=O)N[C@@H](Cc1c[nH]cn1)C(=O)N[C@@H](CCCNC(=N)N)C(=O)N[C@@H](Cc1c[nH]cn1)C(=O)N[C@@H](CCCNC(=N)N)C(=O)N[C@H](CNC(=O)N[C@H](CNC(=O)N[C@H](CNC(=O)N[C@H](CNC(N)=O)Cc1c[nH]c2ccccc12)C(C)C)Cc1c[nH]c2ccccc12)C(C)C [OL-7] | – | – | – | – | – | – | – | – | – | MIC, S. aureus ATCC 25923 ([4]; ATCC 25923, 24 h, pH 7.4): ≥ 100 µg/mL; MIC, E. coli ATCC 25922 ([5]; ATCC 25922, 24 h, pH 7.4): ≥ 100 µg/mL
C[C@@H](c1ncncc1F)[C@](O)(Cn1cncn1)c1ccc(F)cc1F [Voriconazole, reference compound] | – | – | – | – | – | – | – | – | – | MIC ([8]; Aspergillus fumigatus, 098, spores in Sabouraud dextrose broth): 12.5 µg/mL (≈ 35.8 µM)
Pexiganan | – | – | – | – | – | – | – | – | – | Loss of activity in the presence of serum [9]: 32 fold

Second part, led by results:

MIC, C. albicans 18804 ([1]; ATCC 18804, 24 h) [µg/mL] | MIC, P. aeruginosa 27853 ([2]; ATCC 27853, 24 h) [μΜ] | MIC, P. aeruginosa ATCC 27853 ([2]; 37 °C) [µg/mL] | MIC, MRSA [3, 10] [µg/mL] | MIC, MRSA ([3]; S1 Methicillin Resistant, 24 h) [μΜ] | MIC, S. aureus 25923 ([4]; ATCC 25923, 24 h) [μΜ] | MIC, S. aureus ATCC 25923 [4, 10] | MIC, E. coli 25922 ([5]; ATCC 25922, 24 h) [μΜ] | MIC, E. coli ATCC 25922 [5, 10] [µg/mL] | Compound | further results
12.5 (≈ 9.14 µM) | 9.14 | 12.5 (≈ 9.14 µM) | 50 (≈ 36.6 µM) | 36.56 | 9.14 | 12.5 * μg/mL | 9.14 | 12.5 (≈ 9.14 µM) | CC(C)[C@H](N)CNC(=O)N[C@H](CNC(=O)N[C@H](CNC(=O)N[C@H](CNC(=O)N[C@@H](CCCNC(=N)N)CNC(=O)N[C@H](CNC(=O)N[C@@H](CCCNC(=N)N)CNC(=O)N[C@H](CCC(N)=O)C(C)C)Cc1c[nH]c2ccccc12)C(C)C)Cc1c[nH]c2ccccc12)Cc1c[nH]cn1 [OL-1] | –
12.5 (≈ 8.72 µM) | 34.8 | 50 (≈ 34.9 µM) | 12.5 (≈ 8.72 µM) | 8.7 | 8.7 | 12.5 µg/mL (≈ 8.72 µM) | 8.7 | 12.5 (≈ 8.72 µM) | CC(C)NC(=O)N[C@H](CNC(=O)N[C@H](CNC(=O)N[C@H](CNC(=O)N[C@H](CNC(=O)N[C@H](CNC(=O)N[C@H](CNC(=O)N[C@@H](CCCNC(=N)N)CNC(=O)N[C@H](CCC(N)=O)C(C)C)Cc1c[nH]c2ccccc12)Cc1c[nH]cn1)C(C)C)Cc1c[nH]c2ccccc12)Cc1c[nH]cn1)C(C)C [OL-3] | IC50, cell viability (MTS) [6]: about 50 μg/mL; MIC towards MRSA in the presence of 10% serum versus without ([3]; MHB supplemented with 10% decomplemented fetal calf serum, 24 h, 37 °C, mean of three samples): remained unaffected; Change of MIC towards MRSA in the presence of 50% serum ([3]; MHB supplemented with 50% nondecomplemented fetal calf serum, 24 h, 37 °C, mean of three samples): two to four-fold; LDH leakage / alteration of the membranes [7]: least cytotoxic foldamer towards mammalian cells; MIC, Aspergillus fumigatus 098 ([8]; spores in Sabouraud dextrose broth): below 50 μg/mL
